pIC50: −log10 of the molar value.
Test system: Aβ 42 Production
Assay: Quantification of Aβ peptide in culture of neurons from rat fetus brain (Aβ ELISA)
Format: cell-based
Details: Neuron, 72 h; rat primary neuronal culture (embryonic day 18 Wistar rat cerebral cortex), cultured three days after addition of the compound, Aβx-42 ELISA of the medium; read-out: Activity for reducing Aβ 42 Production IC50
Description: Quantification of Aβ Peptide in Culture of Neurons from Rat Fetus Brain
(1) Rat Primary Neuronal Culture
Primary neuronal cultures were prepared from the cerebral cortex of embryonic day 18 Wistar rats (Charles River Japan, Yokohama, Japan). Specifically, the embryos were aseptically removed from pregnant rats under ether anesthesia. The brain was isolated from the embryo and immersed in an ice-cold L-15 medium (Invitrogen Corp. Cat #11415-064, Carlsbad, Calif., USA, or SIGMA L1518, for example). The cerebral cortex was collected from the isolated brain under a stereoscopic microscope. The cerebral cortex fragments collected were enzymatically treated in an enzyme solution containing 0.25% trypsin (Invitrogen Corp. Cat #15050-065, Carlsbad, Calif., USA) and 0.01% DNase (Sigma D5025, St. Louis, Mo., USA) at 37° C. for 30 minutes to disperse the cells. Here, the enzymatic reaction was stopped by adding inactivated horse serum to the solution. The enzymatically treated solution was centrifuged at 1,500 rpm for five minutes to remove the supernatant. 5 to 10 mL of a medium was added to the resulting cell mass. Neurobasal medium (Invitrogen Corp. Cat #21103-049, Carlsbad, Calif., USA) supplemented with 2% B27 supplement (Invitrogen Corp. Cat #17504-044, Carlsbad, Calif., USA), 25 μM 2-mercaptoethanol (2-ME, WAKO Cat #139-06861, Osaka, Japan), 0.5 mM L-glutamine (Invitrogen Corp. Cat #25030-081, Carlsbad, Calif., USA), and Antibiotics-Antimycotics (Invitrogen Corp. Cat #15240-062, Carlsbad, Calif., USA) was used as the medium (Neurobasal/B27/2-ME). However, the above Neurobasal medium not supplemented with 2-ME (Neurobasal/B27) was used for the assay. The cells were redispersed by mild pipetting of the cell mass to which the medium was added. The cell dispersion was filtered through a 40-μm nylon mesh (Cell Strainer, Cat #35-2340, Becton Dickinson Labware, Franklin Lakes, N.J., USA) to remove the remaining cell mass, and thus a neuronal cell suspension was obtained. The neuronal cell suspension was diluted with the medium and then plated in a volume of 100 μl/well at an initial cell density of 5×10^5 cells/cm^2 in a 96-well polystyrene culture plate pre-coated with poly-L or D-lysine (Falcon Cat #35-3075, Becton Dickinson Labware, Franklin Lakes, N.J., USA coated with poly-L-lysine using the method shown below, or BIOCOAT™ cell environments Poly-D-lysine cell ware 96-well plate, Cat #35-6461, Becton Dickinson Labware, Franklin Lakes, N.J., USA). Poly-L-lysine coating was carried out as follows. 100 μg/ml of a poly-L-lysine (SIGMA P2636, St. Louis, Mo., USA) solution was aseptically prepared with a 0.15 M borate buffer (pH 8.5). 100 μl/well of the solution was added to the 96-well polystyrene culture plate and incubated at room temperature for one or more hours or at 4° C. overnight or longer. The coated 96-well polystyrene culture plate was washed with sterile water four or more times, and then dried or rinsed with, for example, sterile PBS or medium, and used for cell plating. The plated cells were cultured in the culture plate at 37° C. in 5% CO2-95% air for one day. Then, the total amount of the medium was replaced with a fresh Neurobasal/B27/2-ME medium, and then the cells were cultured for further three days.
The drug was added to the culture plate on Day 4 of culture as follows. The total amount of the medium was removed from the wells, and 180 μl/well of Neurobasal medium not containing 2-ME and containing 2% B-27 (Neurobasal/B27) was added thereto. A solution of the test compound in dimethyl sulfoxide (hereinafter abbreviated as DMSO) was diluted with Neurobasal/B27 at 10-fold of the final concentration. 20 μl/well of the dilution was added to and sufficiently mixed with the medium. The final DMSO concentration was 1% or less. Only DMSO was added to the control group.
The cells were cultured for three days after addition of the compound, and the total amount of the medium was collected. […]

COc1cc(/C=C2\CC[C@H]3CC[C@@H](c4c(F)cc(F)cc4F)N3C2=O)ccc1-n1cnc(C)c1 [Example 89, (3S,8aS)-6-{1-[3-methoxy-4-(4-methyl-1H-imidazol-1-yl)phenyl]-(E)-methylidene}-3-(2,4,6-trifluorophenyl)hexahydroindolizin-5-one]
pIC50: 7.06

COc1cc(/C=C2\CC[C@H]3CCC[C@@H](c4ccc(F)c(F)c4)N3C2=O)ccc1-n1cnc(C)c1 [Example 90, (6S,9aR)-6-(3,4-difluorophenyl)-3-{1-[3-methoxy-4-(4-methyl-1H-imidazol-1-yl)phenyl]-(E)-methylidene}octahydroquinolizin-4-one]
pIC50: 7.41

COc1cc(/C=C2\CC[C@H]3CCC[C@@H](c4cc(F)c(F)c(F)c4)N3C2=O)ccc1-n1cnc(C)c1 [Example 91, (6S,9aR)-6-(3,4,5-trifluorophenyl)-3-{1-[3-methoxy-4-(4-methyl-1H-imidazol-1-yl)phenyl]-(E)-methylidene}octahydroquinolizin-4-one]
pIC50: 7.48

COc1cc(/C=C2\CC[C@H]3CCC[C@@H](c4ccc(Cl)cc4)N3C2=O)ccc1-n1cnc(C)c1 [Example 92, (6S,9aR)-6-(4-chlorophenyl)-3-{1-[3-methoxy-4-(4-methyl-1H-imidazol-1-yl)phenyl]-(E)-methylidene}octahydroquinolizin-4-one]
pIC50: 7.40

COc1cc(/C=C2\CC[C@H]3COC[C@@H](c4ccc(F)c(F)c4)N3C2=O)ccc1-n1cnc(C)c1 [Example 95, (4R,9aS)-4-(3,4-difluorophenyl)-7-{1-[3-methoxy-4-(4-methyl-1H-imidazol-1-yl)phenyl]-(E)-methylidene}hexahydropyrido[2,1-c][1,4]oxazin-6-one]
pIC50: 7.06

COc1cc(/C=C2\CC[C@H]3COC[C@@H](c4ccc(Cl)cc4)N3C2=O)ccc1-n1cnc(C)c1 [Example 96, (4R,9aS)-4-(4-chlorophenyl)-7-{1-[3-methoxy-4-(4-methyl-1H-imidazol-1-yl)phenyl]-(E)-methylidene}hexahydropyrido[2,1-c][1,4]oxazin-6-one]
pIC50: 7.19

COc1cc(/C=C2\CC[C@H]3CN(C)C[C@@H](c4cc(F)c(F)c(F)c4)N3C2=O)ccc1-n1cnc(C)c1 [Example 110, (4R,9aS)-7-{1-[3-methoxy-4-(4-methyl-1H-imidazol-1-yl)phenyl]-(E)-methylidene}-2-methyl-4-(3,4,5-trifluorophenyl)octahydropyrido[1,2-a]pyrazin-6-one]
pIC50: 7.54
